{"source": "paper PMC3150619", "about": "(Journal of medicinal chemistry, 2011)", "key": {"[1]": {"molecular_target": "PARP-1 (Homo sapiens, UniProt P09874)", "sequence (P09874 whole entry)": "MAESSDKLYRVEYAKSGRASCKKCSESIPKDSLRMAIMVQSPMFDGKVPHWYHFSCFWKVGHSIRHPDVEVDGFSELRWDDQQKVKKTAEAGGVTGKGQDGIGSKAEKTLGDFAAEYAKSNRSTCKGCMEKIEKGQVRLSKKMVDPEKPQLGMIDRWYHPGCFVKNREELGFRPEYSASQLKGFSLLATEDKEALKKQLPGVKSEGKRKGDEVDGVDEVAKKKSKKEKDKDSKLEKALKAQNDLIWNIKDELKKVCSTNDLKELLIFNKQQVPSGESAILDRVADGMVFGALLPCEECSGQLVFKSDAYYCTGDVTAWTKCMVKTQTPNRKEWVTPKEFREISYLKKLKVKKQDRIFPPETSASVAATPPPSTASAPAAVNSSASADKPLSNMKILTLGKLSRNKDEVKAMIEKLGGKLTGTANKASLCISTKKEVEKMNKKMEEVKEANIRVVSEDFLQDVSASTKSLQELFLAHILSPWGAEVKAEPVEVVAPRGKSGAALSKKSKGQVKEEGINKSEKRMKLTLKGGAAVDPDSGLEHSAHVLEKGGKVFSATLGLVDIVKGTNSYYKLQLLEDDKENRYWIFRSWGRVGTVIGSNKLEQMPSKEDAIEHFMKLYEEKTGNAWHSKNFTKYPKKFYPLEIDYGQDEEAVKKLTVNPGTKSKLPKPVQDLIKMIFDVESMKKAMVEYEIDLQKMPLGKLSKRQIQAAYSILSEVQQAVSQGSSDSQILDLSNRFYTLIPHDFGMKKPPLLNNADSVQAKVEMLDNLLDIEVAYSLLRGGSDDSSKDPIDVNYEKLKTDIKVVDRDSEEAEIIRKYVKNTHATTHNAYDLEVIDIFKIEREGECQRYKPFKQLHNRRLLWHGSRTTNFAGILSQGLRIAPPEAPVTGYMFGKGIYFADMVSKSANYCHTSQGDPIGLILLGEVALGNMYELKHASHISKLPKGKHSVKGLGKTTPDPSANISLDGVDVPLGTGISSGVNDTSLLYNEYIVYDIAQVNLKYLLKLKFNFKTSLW", "settings": "previous study; cited from earlier work"}, "[2]": {"system": "PARP activity in SCC-25 cells", "assay": "NAD assay: NAD", "type": "cell-based", "settings": "pretreated with 1mM compound, MNNG 5μg/mL for 30 minutes (Figure 2C)"}, "[3]": {"molecular_target": "T1, PARG (Bos taurus, UniProt O02776)", "T1 sequence (O02776 385-977)": "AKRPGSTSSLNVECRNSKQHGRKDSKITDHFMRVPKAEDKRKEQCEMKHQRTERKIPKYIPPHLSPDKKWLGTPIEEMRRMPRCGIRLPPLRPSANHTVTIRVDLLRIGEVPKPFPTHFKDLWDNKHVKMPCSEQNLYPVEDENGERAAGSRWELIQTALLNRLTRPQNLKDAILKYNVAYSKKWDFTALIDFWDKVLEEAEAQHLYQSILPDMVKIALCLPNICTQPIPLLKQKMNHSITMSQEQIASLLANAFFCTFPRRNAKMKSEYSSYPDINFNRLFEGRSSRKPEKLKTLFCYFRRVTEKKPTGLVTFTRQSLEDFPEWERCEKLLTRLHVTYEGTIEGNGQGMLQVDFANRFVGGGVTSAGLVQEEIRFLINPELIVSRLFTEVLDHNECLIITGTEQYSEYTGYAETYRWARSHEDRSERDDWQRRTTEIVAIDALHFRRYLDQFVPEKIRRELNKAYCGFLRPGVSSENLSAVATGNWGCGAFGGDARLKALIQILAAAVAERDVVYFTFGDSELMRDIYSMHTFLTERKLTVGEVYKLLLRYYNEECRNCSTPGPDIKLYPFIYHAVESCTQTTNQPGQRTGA", "assay": "PARG assay", "type": "biochemical", "settings": "SAR discussion in text"}, "[4]": {"molecular_target": "T1, PARG", "settings": "previous study; cited from earlier work"}, "[5]": {"system": "PARG activity in SCC-25 cells", "assay": "PAR assay: PAR formation/turnover in SCC-25 cells after MNNG", "type": "cell-based"}}, "data": [{"compound": "Nc1ncnc2c1ncn2[C@@H]1O[C@H](COP(=O)(O)OP(=O)(O)OC[C@H]2NC[C@H](O)[C@@H]2O)[C@@H](O)[C@H]1O", "note": "[ADP-HPD, adenosine 5′-diphosphate (hydroxymethyl) pyrrolidinediol]", "values": [{"measurement": "inhibition of PARP-1 (in words)", "setting": "[1]", "result": "does not inhibit PARP-1"}]}, {"compound": "O=C(Nc1ccc(Oc2ccc3ccccc3c2)c(Cl)c1)c1cc(Cl)cc(Cl)c1", "note": "[Compound 6b, 3,5-dichloro-N-(3-chloro-4-(naphthalen-2-yloxy)phenyl)benzamide]", "values": [{"measurement": "inhibition of NAD(H) depletion (in words)", "setting": "[2]", "result": "minimal effect"}, {"measurement": "PARG inhibition (in words)", "setting": "[3]", "result": "loss of detectable inhibition of PARG"}]}, {"compound": "O=C(Nc1ccc(Cl)cc1)c1cc(Cl)cc(Cl)c1O", "note": "[Compound 8d, 3,5-dichloro-N-(4-chlorophenyl)-2-hydroxybenzamide]", "values": [{"measurement": "inhibition of NAD(H) depletion (in words)", "setting": "[2]", "result": "partial inhibition of NAD(H) consumption"}, {"measurement": "PARG inhibition (in words)", "setting": "[3]", "result": "slight loss of potency"}]}, {"compound": "O=C(Nc1cccc(Cl)c1)c1cc(Cl)cc(Cl)c1O", "note": "[Compound 8c, 3,5-dichloro-N-(3-chlorophenyl)-2-hydroxybenzamide]", "values": [{"measurement": "PARG inhibition (in words)", "setting": "[3]", "result": "PARG inhibition returned although at low potency"}]}, {"compound": "O=C(Nc1ccccc1)c1cc(Cl)cc(Cl)c1O", "note": "[Compound 8h, 3,5-dichloro-2-hydroxy-N-benzamide]", "values": [{"measurement": "PARG inhibition (in words)", "setting": "[3]", "result": "not enough to detect PARG inhibition"}]}, {"compound": "O=C(Nc1ccc(O)c(Cl)c1)c1cc(Cl)cc(Cl)c1O", "note": "[Compound 8a, 3,5-dichloro-N-(3-chloro-4-hydroxyphenyl)-2-hydroxybenzamide]", "values": [{"measurement": "PARG inhibition (in words)", "setting": "[3]", "result": "complete loss of PARG inhibition"}]}, {"compound": "O=C(O)c1ccccc1C(=O)Nc1ccc(Oc2ccc3ccccc3c2)c(Cl)c1", "note": "[Compound 6g, 2-(3-chloro-4-(naphthalen-2-yloxy)phenylcarbamoyl)benzoic acid]", "values": [{"measurement": "PARG inhibition (in words)", "setting": "[3]", "result": "PARG inhibition was retained"}]}, {"compound": "NC(=O)c1ccccc1", "note": "[Benzamide, benzamide, reference compound]", "values": [{"measurement": "inhibition of NAD(H) depletion (in words)", "setting": "[2]", "result": "complete inhibition of NAD(H) depletion"}, {"measurement": "inhibition of PARG (in words)", "setting": "[4]", "result": "does not inhibit PARG"}]}, {"compound": "Oc1c(Cl)cc(Cl)cc1/C=N/c1ccc(Oc2ccc3ccccc3c2)c(Cl)c1", "note": "[Compound 9, 2,4-dichloro-6-((3-chloro-4-(naphthalen-2-yloxy)phenylimino)methyl)phenol]", "values": [{"measurement": "PARG inhibition (in words)", "setting": "[3]", "result": "loss of PARG inhibition"}]}, {"compound": "O=C(Nc1ccccc1Cl)c1cc(Cl)cc(Cl)c1O", "note": "[Compound 8b, 3,5-dichloro-N-(2-chlorophenyl)-2-hydroxybenzamide]", "values": [{"measurement": "PARG inhibition (in words)", "setting": "[3]", "result": "slight loss of potency"}]}, {"compound": "COc1c(Cl)cc(Cl)cc1C(=O)Nc1ccc(Oc2ccc3ccccc3c2)c(Cl)c1", "note": "[Compound 6f, 3,5-dichloro-N-(3-chloro-4-(naphthalen-2-yloxy)phenyl)-2-methoxybenzamide]", "values": [{"measurement": "PARG inhibition (in words)", "setting": "[3]", "result": "loss of detectable PARG inhibition"}]}, {"compound": "Oc1c(Cl)cc(Cl)cc1CNc1ccc(Oc2ccc3ccccc3c2)c(Cl)c1", "note": "[Compound 10, 2,4-dichloro-6-((3-chloro-4-(naphthalen-2-yloxy)phenylamino)methyl)phenol]", "values": [{"measurement": "PARG inhibition (in words)", "setting": "[3]", "result": "loss of PARG inhibition"}]}, {"compound": "NC(=O)c1cc(Cl)cc(Cl)c1O", "note": "[Compound 7, 3,5-dichloro-2-hydroxybenzamide]", "values": [{"measurement": "inhibition of NAD(H) depletion (in words)", "setting": "[2]", "result": "minimal effect"}, {"measurement": "PARG inhibition (in words)", "setting": "[3]", "result": "loss of detectable PARG inhibition"}]}, {"compound": "O=C(Nc1ccc(Oc2ccc3ccccc3c2)c(Cl)c1)c1cc(Cl)cc(Cl)c1O", "note": "[Compound 6a, 3,5-dichloro-N-(3-chloro-4-(naphthalen-2-yloxy)phenyl)-2-hydroxybenzamide]", "values": [{"measurement": "increase of PAR accumulation at 10 min", "setting": "[5]; SCC-25 cells pre-incubated with 1mM compound, MNNG 5μg/mL (Figure 3B)", "result": "approximately 3 fold"}, {"measurement": "inhibition of PARG in intact cells (in words)", "setting": "[5]; SCC-25 cells, 1mM compound, MNNG 5μg/mL", "result": "nearly complete inhibition of PARG"}, {"measurement": "inhibition of NAD(H) depletion (in words)", "setting": "[2]", "result": "partial inhibition of NAD(H) consumption"}]}]}
